In patent US7807678B2, “Peptidomimetics of biologically active metallopeptides” (Palatin Technologies, Inc., priority 2001, dated 2010):
Read-outs that look alike come from different tables or passages of the source.

Assays:
MC4-R (HEK-293 cells) = target: T1, MC4-R (HEK-293 cells) (Homo sapiens, UniProt P32245); test: cAMP assay for agonist/antagonist status, MC4-R; format: cell-based
T1 construct: expressed in transfected cells; host or cells: HEK-293
Procedure: (§1) The Ki (nM) of certain peptidomimetics were determined, as was the agonist/antagonist status with respect to MC4-R, Functional evaluation of compounds at melanocortin receptors was performed by measuring the accumulation of intracellular cAMP in HEK-293 cells expressing MC3-R, MC4-R or MC5-R, and in B-16 mouse melanoma cells (containing MC1-R). Antagonistic activity was determined by measuring the inhibition of α-MSH-induced cAMP levels following exposure to the compounds. Cells, suspended in Earle's Balanced Salt Solution containing 10 mM HEPES, pH 7.5, 5 mM MgCl2, 1 mM glutamine, 0.1% albumin and 0.6 mM 3-isobutyl-1-methyl-xanthine, a phosphodiesterase inhibitor, were plated in 96 well plates at a density of 0.5×10^5 cells per well. Cells were incubated with the test compounds in the presence or absence of α-MSH for 1 hour at 37° C. cAMP levels were measured by EIA (Amersham) in the cell lysates. Data analysis and EC50 values were determined using nonlinear regression analysis with Prism Graph-Pad software.

MC3-R [1] = target: T2, MC3-R (Homo sapiens, UniProt P41968); test: Competitive inhibition binding assay, 125I-NDP-α-MSH, MC3-R; set-up: expressed in transfected cells; settings: 1 μM compound; inhibition of 125I-NDP-α-MSH binding; mean of triplicates; results less than 0% reported as 0%
T2 sequence (P41968 whole entry): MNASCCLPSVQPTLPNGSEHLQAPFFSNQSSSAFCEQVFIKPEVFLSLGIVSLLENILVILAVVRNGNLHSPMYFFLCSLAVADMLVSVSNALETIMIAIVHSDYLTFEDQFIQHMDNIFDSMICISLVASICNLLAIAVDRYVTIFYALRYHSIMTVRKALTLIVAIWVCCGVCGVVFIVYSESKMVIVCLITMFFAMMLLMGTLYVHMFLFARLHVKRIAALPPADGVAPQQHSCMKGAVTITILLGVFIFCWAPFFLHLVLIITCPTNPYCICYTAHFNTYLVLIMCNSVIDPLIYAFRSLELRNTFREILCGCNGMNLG
Summary of the method: (§2)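 Membranes from hMC3-R, hMC4-R or hMC5-R cells, or B-16 mouse melanoma cells (MC1-R), were incubated 90 min at room temperature with 0.4 nM 125I-NDP-α-MSH in HEPES pH 7.2 with Mg2+/Ca2+/K+, and test compound generally at 1 μM. Filter-bound radioactivity was gamma counted. Specific binding was defined with 1 μM α-MSH; triplicate means.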

[2] = target: T3, MC1-R (B-16 mouse melanoma cells) (Mus musculus, UniProt Q01727); test: cAMP assay for agonist/antagonist status, MC1-R; format: cell-based
T3 construct: B-16 mouse melanoma cells (containing MC1-R); endogenous in cells; host or cells: B-16 mouse melanoma cells
T3 sequence (Q01727 whole entry): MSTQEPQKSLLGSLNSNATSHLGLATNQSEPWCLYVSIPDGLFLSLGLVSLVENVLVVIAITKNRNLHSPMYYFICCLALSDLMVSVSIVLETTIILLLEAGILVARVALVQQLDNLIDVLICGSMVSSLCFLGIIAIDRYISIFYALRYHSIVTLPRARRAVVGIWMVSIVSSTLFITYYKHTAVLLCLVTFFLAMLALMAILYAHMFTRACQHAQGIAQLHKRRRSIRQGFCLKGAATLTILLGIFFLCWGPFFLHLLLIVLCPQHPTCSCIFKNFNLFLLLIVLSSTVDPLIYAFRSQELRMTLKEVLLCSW
Procedure: as §1

MC5-R (HEK-293 cells) = target: T4, MC5-R (HEK-293 cells) (Homo sapiens, UniProt P33032); test: cAMP assay for agonist/antagonist status, MC5-R; format: cell-based
T4 construct: expressed in transfected cells; host or cells: HEK-293
T4 sequence (P33032 whole entry): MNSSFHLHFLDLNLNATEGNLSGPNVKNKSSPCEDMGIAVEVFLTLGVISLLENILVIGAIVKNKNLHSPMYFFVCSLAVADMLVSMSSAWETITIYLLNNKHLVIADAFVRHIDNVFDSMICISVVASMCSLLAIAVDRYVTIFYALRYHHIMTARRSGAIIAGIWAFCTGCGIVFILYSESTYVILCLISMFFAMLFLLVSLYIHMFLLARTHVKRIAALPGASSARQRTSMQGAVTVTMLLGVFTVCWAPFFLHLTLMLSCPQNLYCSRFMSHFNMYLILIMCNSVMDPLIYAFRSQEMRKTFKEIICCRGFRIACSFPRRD
Procedure: as §1

MC5-R [3] = target: T5, MC5-R (Homo sapiens, UniProt P33032); test: Competitive inhibition binding assay, 125I-NDP-α-MSH, MC5-R; set-up: expressed in transfected cells; settings: 1 μM compound; inhibition of 125I-NDP-α-MSH binding; mean of triplicates; results less than 0% reported as 0%
T5 sequence (P33032 whole entry): as above
Summary of the method: as §2

MC4-R = MC4-R (Homo sapiens, UniProt P32245); test: Competitive inhibition binding assay, 125I-NDP-α-MSH, MC4-R; set-up: expressed in transfected cells; settings: 1 μM compound; inhibition of 125I-NDP-α-MSH binding; mean of triplicates; results less than 0% reported as 0%
MC4-R, sequence (P32245 whole entry): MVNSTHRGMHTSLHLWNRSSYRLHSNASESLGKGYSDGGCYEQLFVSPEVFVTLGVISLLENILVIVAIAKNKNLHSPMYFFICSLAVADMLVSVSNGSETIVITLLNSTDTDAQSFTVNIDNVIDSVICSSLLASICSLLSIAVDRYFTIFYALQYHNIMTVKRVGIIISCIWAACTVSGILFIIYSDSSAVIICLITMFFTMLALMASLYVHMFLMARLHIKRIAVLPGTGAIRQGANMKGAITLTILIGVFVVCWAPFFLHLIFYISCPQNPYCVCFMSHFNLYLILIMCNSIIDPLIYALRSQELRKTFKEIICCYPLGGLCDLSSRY
Summary of the method: as §2

[4] = target: T3, MC1-R (B-16 mouse melanoma cells); test: Competitive inhibition binding assay, 125I-NDP-α-MSH, MC1-R; settings: 1 μM compound; inhibition of 125I-NDP-α-MSH binding; mean of triplicates; results less than 0% reported as 0%
Summary of the method: as §2

MC3-R [5] = target: T2, MC3-R; test: Ki determination by the method of Example 4, MC3-R; format: binding; set-up: expressed in transfected cells; host or cells: HEK-293
Procedure: as §1

MC5-R [6] = target: T5, MC5-R; test: Ki determination by the method of Example 4, MC5-R; format: binding; set-up: expressed in transfected cells; host or cells: HEK-293; settings: read-out: Ki (nM) MC5-R
Procedure: as §1

[7] = bound in μM, read-out: Ki MC3-R

T1 sequence (P32245 whole entry): as above

Row | Compound | agonist/antagonist status as to MC4-R (MC4-R (HEK-293 cells)) | Inhibition at 1 μM MC3-R (MC3-R [1]) | agonist/antagonist status as to MC1-R [2] | agonist/antagonist status as to MC5-R (MC5-R (HEK-293 cells)) | Inhibition at 1 μM MC5-R (MC5-R [3]) | Inhibition at 1 μM MC4-R (MC4-R) | Inhibition at 1 μM MC1-R [4] | Ki (MC3-R [5]; [7]) | Ki (MC5-R [6]) | Ki (MC3-R [5]; read-out: Ki (nM) MC3-R)
1 | NCCCC[C@H]1C(=O)N(CCc2ccc3ccccc3c2)CCN1C(=O)[C@@H](Cc1ccc(Cl)cc1Cl)NCCOCc1ccccc1 [Example 40] | antagonist | 17% | antagonist | agonist | 30% | 91% | 27% |  |  | 
2 | N=C(N)NCCC[C@H]1C(=O)N(CCc2ccc3ccccc3c2)CCN1C(=O)[C@H](N)Cc1ccc(Cl)cc1Cl [Example 51] | agonist | 47% | antagonist | agonist | 35% | 95% | 22% |  |  | 
3 | NCCCC[C@H]1C(=O)N(CCc2ccc3ccccc3c2)CCN1C(=O)[C@@H](Cc1ccc(Cl)cc1Cl)NCc1ccc2ccccc2c1 [Example 41] | antagonist | 4% | antagonist | agonist | 2% | 84% | 4% |  |  | 
4 | NCCCC[C@H]1C(=O)N(CCc2ccc3ccccc3c2)CCN1C(=O)[C@@H](Cc1ccc(Cl)cc1Cl)NC(=O)[C@@H]1Cc2ccccc2CN1 [Example 23] | agonist | 62% | agonist | agonist | 80% | 100% | 63% |  |  | 
5 | NCCCC[C@H]1C(=O)N(CCc2ccc3ccccc3c2)CCN1C(=O)[C@@H](Cc1ccc(Cl)cc1Cl)NC(=O)C/C=C/c1ccccc1 [Example 33] | antagonist | 25% | antagonist | agonist | 61% | 91% | 14% |  |  | 
6 | NCCCC[C@H]1C(=O)N(CCc2ccc3ccccc3c2)CCN1C(=O)[C@@H](Cc1ccc(Cl)cc1Cl)NCc1ccc(-c2ccccc2)cc1 [Example 39] | antagonist | 4% | antagonist | agonist | 9% | 85% | 0% |  |  | 
7 | NCCC[C@H]1C(=O)N(CCc2ccc3ccccc3c2)CCN1C(=O)[C@@H](Cc1ccc(Cl)cc1Cl)NC(=O)[C@@H](N)COCc1ccccc1 [Example 52] | agonist | 25% | agonist | agonist | 63% | 94% | 36% |  |  | 
8 | NCCCCC1C(=O)N2C(COc3ccc4ccccc4c3)CCC2N1C(=O)C(Cc1ccc(Cl)cc1)NC(=O)C1Cc2ccccc2CN1 (stereo not shown) [Example 80] |  |  |  |  |  |  |  | > 1 µM |  | 
9 | C[C@@H](OCc1ccccc1)[C@H](N)C(=O)N[C@H](Cc1ccc(Cl)cc1Cl)C(=O)N1CCN(CCc2ccc3ccccc3c2)C(=O)[C@@H]1CCCCN [Example 24] | agonist | 34% | agonist | agonist | 78% | 99% | 30% |  |  | 
10 | NCCCC[C@H]1C(=O)N(CCc2ccc3ccccc3c2)CCN1C(=O)[C@@H](Cc1ccc(Cl)cc1Cl)NC(=O)[C@@H]1C[C@@H](OCc2ccccc2)CN1 [Example 25] | agonist | 61% | agonist | agonist | 83% | 100% | 21% |  |  | 
11 | N=C(N)NCCCC1C(=O)N2C(COc3ccc4ccccc4c3)CCC2N1C(=O)C(Cc1ccccc1Cl)NC(=O)C(N)COCc1ccccc1 (stereo not shown) [Example 99] |  |  |  |  |  |  |  | > 1 µM |  | 
12 | NCCCC[C@H]1C(=O)N(CCc2ccc3ccccc3c2)CCN1C(=O)[C@@H](Cc1ccc(Cl)cc1Cl)NC(=O)[C@H]1CC[C@@H](c2ccccc2)N1 [Example 27] | agonist | 9% | agonist | agonist | 46% | 71% | 0% |  |  | 
13 | CCCCCCC(=O)NC(COCc1ccccc1)C(=O)NC(Cc1ccc(Cl)cc1)C(=O)N1C(CCCCN)C(=O)N2C(COc3ccc4ccccc4c3)CCC21 (stereo not shown) [Example 81] |  |  |  |  |  |  |  |  | 134 nM | 0.209 µM
14 | N=C(N)NCCC[C@H]1C(=O)N2C(CC[C@@H]2COc2ccc3ccccc3c2)N1C(=O)[C@@H](Cc1ccc(Cl)cc1Cl)NC(=O)[C@@H]1C[C@@H](OCc2ccccc2)CN1 (stereo partly shown) [Example 113] | antagonist | 84% | agonist | agonist | 100% | 100% | 53% |  |  | 
15 | NC(=O)NCCC[C@H]1C(=O)N(CCc2ccc3ccccc3c2)CCN1C(=O)[C@@H](Cc1ccc(Cl)cc1Cl)NC(=O)[C@@H](N)COCc1ccccc1 [Example 44] | agonist | 43% | agonist | agonist | 66% | 94% | 8% |  |  | 
